≈ marks a conversion by molar mass, not a printed value. Where two headings read alike, the source gives them in different places.
What was measured:
human GIP receptor = target: T1, human GIP receptor (Homo sapiens, UniProt P48546); test: In vitro cellular cAMP assay for GIP receptor efficacy (human adipocytes); assay type: cell-based; settings: for EC50: read-out: hGIPR EC50; for Emax: read-out: hGIPR Emax
T1 construct: human adipocytes endogenously expressing the human GIP receptor; host or cells: human preadipocytes (Lonza) differentiated to adipocytes
T1 sequence (P48546 22-466): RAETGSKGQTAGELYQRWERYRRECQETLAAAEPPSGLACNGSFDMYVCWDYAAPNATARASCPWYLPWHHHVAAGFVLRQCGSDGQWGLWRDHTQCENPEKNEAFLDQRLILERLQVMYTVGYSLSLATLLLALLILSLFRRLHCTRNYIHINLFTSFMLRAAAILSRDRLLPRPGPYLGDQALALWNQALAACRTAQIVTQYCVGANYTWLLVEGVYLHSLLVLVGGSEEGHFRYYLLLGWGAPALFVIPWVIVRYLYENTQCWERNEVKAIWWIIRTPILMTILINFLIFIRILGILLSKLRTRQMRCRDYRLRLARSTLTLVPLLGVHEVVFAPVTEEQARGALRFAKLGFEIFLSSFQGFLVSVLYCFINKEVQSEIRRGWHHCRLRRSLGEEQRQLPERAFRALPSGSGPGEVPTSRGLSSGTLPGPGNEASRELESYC
In short: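 Human preadipocytes expanded, then differentiated 6 days (insulin, dexamethasone, PPARγ agonist, 200 μM IBMX, L-thyroxine) before plating at 5000 cells/well. Test compound applied 30 min at room temperature; cAMP measured by HTRF after 1 h with lysis-buffer reagents, read as 665/620 nm fluorescence ratio.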

[1] = target: T2, human GIP receptor (hGIPR) (Homo sapiens, UniProt P48546); test: Binding assay, displacement of [125I]GIP from HEK-293 membranes over-expressing GIPR (SPA); settings: [125I]GIP displacement
T2 sequence (P48546 22-466): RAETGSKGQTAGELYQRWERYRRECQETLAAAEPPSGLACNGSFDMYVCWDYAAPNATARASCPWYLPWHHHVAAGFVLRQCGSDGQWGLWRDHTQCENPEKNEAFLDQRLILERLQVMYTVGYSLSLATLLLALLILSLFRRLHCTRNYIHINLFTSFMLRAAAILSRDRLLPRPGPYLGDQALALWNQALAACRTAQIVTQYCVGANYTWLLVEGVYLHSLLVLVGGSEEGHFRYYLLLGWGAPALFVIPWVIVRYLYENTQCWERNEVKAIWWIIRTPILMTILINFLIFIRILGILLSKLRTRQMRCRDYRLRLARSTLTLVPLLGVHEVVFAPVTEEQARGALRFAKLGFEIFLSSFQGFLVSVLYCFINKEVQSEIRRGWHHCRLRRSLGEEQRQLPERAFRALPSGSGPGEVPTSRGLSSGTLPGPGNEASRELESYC
In short: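 Membranes from HEK-293 cells over-expressing human GIPR or GLP-1R, isolated by homogenising, sonicating and ultracentrifuging at 100000×g into HEPES/EDTA/NaCl buffer with protease inhibitors, were used for binding.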

[2] = target: T3, human GLP-1 receptor (hGLP-1R) (Homo sapiens, UniProt P43220); test: In vitro cellular cAMP assay for GLP-1 receptor efficacy (HEK-293 cell line over-expressing receptor); assay type: cell-based; settings: HEK-293, 0.1% BSA
T3 sequence (P43220 24-463): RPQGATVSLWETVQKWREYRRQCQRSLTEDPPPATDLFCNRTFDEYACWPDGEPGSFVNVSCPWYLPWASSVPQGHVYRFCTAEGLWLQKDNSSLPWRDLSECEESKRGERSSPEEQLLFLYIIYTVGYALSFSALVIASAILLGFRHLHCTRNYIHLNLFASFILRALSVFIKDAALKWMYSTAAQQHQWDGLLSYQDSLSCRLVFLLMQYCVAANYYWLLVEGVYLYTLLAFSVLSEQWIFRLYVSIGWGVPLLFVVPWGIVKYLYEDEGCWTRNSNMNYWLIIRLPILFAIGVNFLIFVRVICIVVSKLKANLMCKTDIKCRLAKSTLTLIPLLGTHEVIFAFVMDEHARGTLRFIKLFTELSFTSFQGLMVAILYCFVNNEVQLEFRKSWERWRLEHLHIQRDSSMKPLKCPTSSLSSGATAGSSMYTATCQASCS

[3] = target: T2, human GIP receptor (hGIPR); test: In vitro cellular cAMP assay for GIP receptor efficacy (HEK-293 cell line over-expressing receptor); assay type: cell-based; settings: EC50 hGIPR 0.1% BSA, HEK-293, 0.1% BSA
[4] = Solubility assessment (UHPLC-UV of supernatant, target 10 mg/ml); assay type: physicochemical
In short: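 Peptides at 10 mg/ml (purity-corrected) in 100 mM phosphate pH 7.4, optionally with 2.7 mg/ml m-cresol; gentle agitation 1 h, then 5° C. overnight (24 h). Supernatant after 15 min centrifugation at 2500 RCF quantified by UHPLC-UV, with sequence-based extinction coefficients.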

[5] = target: T3, human GLP-1 receptor (hGLP-1R); test: Binding assay, displacement of [125I]GLP-1 from HEK-293 membranes over-expressing GLP-1R (SPA); settings: [125I]GLP-1 displacement
Procedure: (1) Preparation of Membranes from HEK-293 Cells Over-Expressing GIPR or GLP-1R
HEK-293 cells recombinantly over-expressing GIPR or GLP-1R were grown to 50% confluency, washed with warm 1×PBS (Gibco) and detached in HEPES/EDTA-buffer (100 mM HEPES pH 7.5, 5 mM EDTA). Cells were harvested by centrifugation at 4° C. and 3000×g and the pellets were stored at −80° C. until further processing.
After thawing on ice, pellets were resuspended in HEPES/EDTA-buffer and homogenized on ice for 1 min using Ultra-Turray T25. After subsequent sonification the cell debris was removed by centrifugation at 1000×g and 4° C. Supernatants were then ultra-centrifuged at 100000×g and 4° C. under vacuum for 30 min. Pellets were resuspended in HEPES/EDTA/NaCl-buffer (20 mM HEPES, 1 mM EDTA, 150 mM NaCl; add 1 Complete Mini Protease inhibitor cocktail to 10 ml buffer) and protein content was determined via BCA-Protein assay.
(2) Measurement of Binding Activity of Test Compounds to Human GIPR or GLP-1R

Compound | EC50 (human GIP receptor) [nM] | Emax (human GIP receptor) [%] | IC50 [1] [nM] | EC50 [2] [nM] | EC50 [3] [nM] | solubility at 24 h ([4]; pH 7.4, Soluble amount) [µg/mL] | IC50 [5] [nM] | solubility at 24 h ([4]; 100 mM phosphate buffer pH 7.4 (solubility buffer system A), pH 7.4, Solubility buffer system A: 100 mM phosphate buffer pH 7.4, read-out: Soluble amount) [µg/mL] | solubility at 24 h ([4]; pH 7.4, Solubility buffer system C: 100 mM phosphate buffer pH 7.4, 2.7 mg/ml m-cresol, read-out: Soluble amount) [µg/mL]
CC[C@H](C)[C@H](NC(=O)[C@H](Cc1ccccc1)NC(=O)[C@H](CCC(=O)O)NC(=O)C(C)(C)NC(=O)[C@H](CCC(N)=O)NC(=O)[C@H](CCCCNC(=O)COCCOCCNC(=O)COCCOCCNC(=O)CC[C@H](NC(=O)CCCCCCCCCCCCCCCCC(=O)O)C(=O)O)NC(=O)[C@H](CCC(N)=O)NC(=O)[C@H](CCC(=O)O)NC(=O)[C@H](CCC(=O)O)NC(=O)[C@H](CC(C)C)NC(=O)C(C)(C)NC(=O)[C@@H](NC(=O)[C@H](CO)NC(=O)[C@H](CC(C)C)NC(=O)[C@H](CC(=O)O)NC(=O)[C@H](CO)NC(=O)[C@@H](NC(=O)[C@H](Cc1ccccc1)NC(=O)[C@@H](NC(=O)CNC(=O)[C@H](CCC(=O)O)NC(=O)C(C)(C)NC(=O)[C@@H](N)Cc1ccc(O)cc1)[C@@H](C)O)[C@@H](C)CC)[C@@H](C)CC)C(=O)N[C@@H](CCC(=O)O)C(=O)N[C@@H](Cc1c[nH]c2ccccc12)C(=O)N[C@@H](CC(C)C)C(=O)N[C@@H](CC(C)C)C(=O)N[C@@H](C)C(=O)N[C@@H](CCC(N)=O)C(=O)NCC(=O)N1CCC[C@H]1C(=O)N[C@@H](CO)C(=O)N[C@@H](CO)C(=O)NCC(=O)N[C@@H](CCC(=O)O)C(=O)N1CCC[C@H]1C(=O)N1CCC[C@H]1C(=O)N1CCC[C@H]1C(=O)N[C@@H](CO)C(N)=O [SEQ ID NO: 38, H2N-Y-Aib-E-G-T-F-I-S-D-L-S-I-Aib-L-E-E-Q-K[{AEEA}2-gGlu-C18OH]-Q-Aib-E-F-I-E-W-L-L-A-Q-G-P-S-S-G-E-P-P-P-S-NH2] | 0.4 | 92 | 0.2 | > 10 | 0.0531 | > 9200 | 73 |  | 
CC[C@H](C)[C@H](NC(=O)[C@H](CCCNC(=N)N)NC(=O)[C@H](CC(=O)O)NC(=O)[C@H](CCCCNC(=O)COCCOCCNC(=O)COCCOCCNC(=O)CC[C@H](NC(=O)CC[C@H](NC(=O)CCCCCCCCCCCCCCCCCCC(=O)O)C(=O)O)C(=O)O)NC(=O)C(C)(C)NC(=O)[C@@H](NC(=O)[C@H](CO)NC(=O)[C@H](CC(C)C)NC(=O)[C@H](CC(=O)O)NC(=O)[C@H](CO)NC(=O)[C@@H](NC(=O)[C@H](Cc1ccccc1)NC(=O)[C@@H](NC(=O)CNC(=O)[C@H](CCC(=O)O)NC(=O)C(C)(C)NC(=O)[C@@H](N)Cc1ccc(O)cc1)[C@@H](C)O)[C@@H](C)CC)[C@@H](C)CC)C(=O)N[C@@H](Cc1c[nH]cn1)C(=O)N[C@@H](CCC(N)=O)C(=O)NC(C)(C)C(=O)N[C@@H](CCC(=O)O)C(=O)N[C@@H](Cc1ccccc1)C(=O)N[C@H](C(=O)N[C@@H](CCC(=O)O)C(=O)N[C@@H](Cc1c[nH]c2ccccc12)C(=O)N[C@@H](CC(C)C)C(=O)N[C@@H](CC(C)C)C(=O)N[C@@H](C)C(=O)N[C@@H](CCC(N)=O)C(=O)N[C@@H](CCCNC(=N)N)C(=O)NCC(N)=O)[C@@H](C)CC [SEQ ID NO: 10, H2N-Y-Aib-E-G-T-F-I-S-D-L-S-I-Aib-K[{AEEA}2-{gGlu}2-C20OH]-D-R-I-H-Q-Aib-E-F-I-E-W-L-L-A-Q-R-G-NH2] | 1.2 | 98 | 0.5 | > 10 | 0.0222 |  | 183 | 7300 (≈ 1620 µM) | 7200 (≈ 1600 µM)
